Article PMC4698308, “A new amino acid substitution (Ala-205-Phe) in acetolactate synthase (ALS) confers broad spectrum resistance to ALS-inhibiting herbicides” (Planta, 2015)
Where two headings read alike, the source gives them in different places.

What was measured:
[1] = tested on: annual bluegrass (Poa annua L.); experiment: Whole plant non-target site resistance experiment with P450 inhibitors malathion or PBO (control 21 days after treatment); type: in vivo; conditions: for Annual bluegrass control S: susceptible (S)
Procedure: Additional experiments were conducted during March–April 2015 to determine if non-target site based mechanisms conferred resistance to ALS inhibitors in our annual bluegrass population, POAAN-R3. Plants (RP6, RP7, and S) were cultured in plastic conical containers as previously described and allowed to acclimate to the glasshouse for 18 days prior to initiating two experiments.
In the first experiment, resistant (RP6, RP7) and susceptible (S) plants were treated with foramsulfuron at 29 g ha^−1, trifloxysulfuron (Monument. Syngenta Professional Products. Greensboro, NC, USA) at 27.8 g ha^−1, imazaquin (Image. BASF Corporation. Research Triangle Park, NC) at 27.5 g ha^−1, or bispyribac-sodium (Velocity. Valent USA Corporation. Walnut Creek, CA, USA) at 70 g ha^−1. All herbicides were applied alone or in combination with either malathion (Spectrum Group. St. Louis, MO, USA) at 1000 g ha^−1 or piperonyl butoxide (Sigma Aldrich. St. Louis, MO, USA) at 2100 g ha^−1. Malathion and piperonyl butoxide (PBO) inhibit cytochrome P450 monooxygenases involved in metabolism of ALS inhibiting herbicides and are commonly used at the application rates tested herein to evaluate non-target site based resistance mechanisms in weeds (Burnet et al. [1994]; Christopher et al. [1992]; Yu and Powles [2014b]; Rao et al. [1995]). All herbicides were mixed in water carrier and included non-ionic surfactant at 0.25 % v/v. Malathion and PBO were mixed with methanol and de-ionized water (50:50) and applied 60 min prior to herbicide application using a previously described enclosed spray chamber on 13 February 2015.
Annual bluegrass control was visually assessed on a 0 (i.e., no control) to 100 % (i.e., complete kill) scale relative to the non-treated 21 days after treatment. After all control data had been collected, aboveground biomass was harvested from each plastic conical container at the soil line using scissors, dried at 100 °C, and weighed. Treatments were arranged as a 3 × 5 × 3 factorial with three plant selections (RP6, RP7, S), five herbicides (foramsulfuron, trifloxysulfuron, imazaquin, bispyribac-sodium, non-treated) and three P450 inhibitor treatments (malathion, PBO, non-treated) in a completely randomized design with four replications and repeated in separate glasshouses during February 2015.

[2] = tested on: recombinant Arabidopsis thaliana ALS variant W574L; type: biochemical; conditions: IC50 mutant divided by IC50 sensitive ALS; max inhibitor concentration 1.00 × 10^−04 M
Procedure: (§1) Effects of SNPs identified in sequencing analysis on ALS activity were studied using A. thaliana. The ALS gene from A. thaliana and derivatives thereof were de novo synthesized and subcloned into pET-24d(+) (Life Technologies. Grand Island, NY, USA) using NcoI and XhoI restriction sites. Protein constructs contained an 85 amino acid N-terminal deletion (chloroplast transit peptide) and the addition of an N-terminal Hexa-histidine tag to facilitate purification.
(§2) Lysis was performed by at least two passes through a fluidizer, followed by centrifuging at 80000×g for 30 min at 4 °C. […] Fractions containing ALS protein were pooled and stored at −20 °C.
(§3) Inhibitors, purchased from Sigma as Pestanal standards (Sigma-Aldrich, Deisenhofen, Germany), were dissolved in DMSO and added to the reaction mixture. Inhibitors evaluated included imidazolinone, sulfonylurea, triazolopyrimidines, sulfonylamino-carbonyl- triazolinones, and pyrimidinyl (thio) benzoate herbicides. The reaction mixture was incubated at 30 °C for 60 min and stopped with 70 µl of H2SO4 (3 M). The reaction was then heated to 56 °C for 15 min to convert acetolactate into acetoin. […] For each inhibitor, resistance factors were calculated by dividing IC50 values for mutant and sensitive ALS.

[3] = tested on: recombinant Arabidopsis thaliana ALS variant A205V; type: biochemical; conditions: IC50 mutant divided by IC50 sensitive ALS; max inhibitor concentration 1.00 × 10^−04 M
Procedure: as §1, §2, §3

[4] = target: T1, recombinant Arabidopsis thaliana ALS wild-type enzyme (WT—sensitive) (Arabidopsis thaliana, UniProt P17597); experiment: biochemical
T1 construct: Protein constructs contained an 85 amino acid N-terminal deletion (chloroplast transit peptide); Hexa-histidine tag (N); made in house
T1 sequence (P17597 86-670): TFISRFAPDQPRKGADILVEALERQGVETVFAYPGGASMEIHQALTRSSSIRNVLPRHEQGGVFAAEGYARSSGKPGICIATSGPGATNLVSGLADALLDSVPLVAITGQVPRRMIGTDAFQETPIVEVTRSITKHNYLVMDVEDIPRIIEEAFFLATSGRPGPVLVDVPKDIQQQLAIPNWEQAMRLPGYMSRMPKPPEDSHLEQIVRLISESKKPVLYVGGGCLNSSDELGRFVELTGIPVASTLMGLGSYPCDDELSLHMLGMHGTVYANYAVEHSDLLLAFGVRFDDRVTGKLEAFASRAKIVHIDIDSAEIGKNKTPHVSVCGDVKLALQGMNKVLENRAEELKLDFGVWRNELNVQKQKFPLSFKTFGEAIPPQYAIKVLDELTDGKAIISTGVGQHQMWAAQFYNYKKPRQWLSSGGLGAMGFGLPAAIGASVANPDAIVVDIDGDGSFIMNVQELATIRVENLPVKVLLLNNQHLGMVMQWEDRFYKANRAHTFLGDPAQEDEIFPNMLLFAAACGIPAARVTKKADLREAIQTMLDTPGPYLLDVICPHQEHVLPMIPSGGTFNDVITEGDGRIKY
Procedure: as §1, §2, §3

[5] = tested on: annual bluegrass (Poa annua L.); experiment: Whole plant non-target site resistance experiment, foramsulfuron vs sulfometuron (control and plant height 28 days after treatment); type: in vivo
Procedure: A second experiment was conducted to determine if non-target mechanisms could confer resistance to ALS inhibiting herbicides in our annual bluegrass population, POAAN-R3. ALS-resistant (RP1–RP8) and susceptible (S) plants were cultured in plastic conical containers under previously described glasshouse conditions for 28 days before being treated with foramsulfuron (29 g ha^−1) or sulfometuron-methyl (Oust XP; Dupont Professional Products. Wilmington, DE, USA) at 105 g ai ha^−1. Sulfometuron-methyl is an ALS inhibiting herbicide not metabolized by cytochrome P450 monooxygenases; therefore, it can be used to discern if weed populations survive ALS inhibiting herbicide treatment via target- or non-target site based mechanisms (Christopher et al. [1992]). Per label recommendations, sulfometuron-methyl included non-ionic surfactant at 0.25 % v/v. Treatments were mixed in water carrier applied in an enclosed spray chamber, as previously described, on 13 March 2015.
Annual bluegrass control was visually assessed on a 0 (i.e., no control) to 100 % (i.e., complete kill) scale relative to the non-treated 28 days after treatment. After all control data had been collected, plant height data were collected using a ruler placed at the soil surface of each plastic conical container and recording the distance to the tip of the bud leaf. Treatments were arranged as a 9 × 3 factorial with nine plant selections (RP1–RP8, S) and three herbicides (foramsulfuron, sulfometuron-methyl, non-treated) in a completely randomized design with four replications and repeated in separate glasshouses during March 2015.

## COc1cc(OC)nc(Oc2cccc(Oc3nc(OC)cc(OC)n3)c2C(=O)O)n1 [Bispyribac-sodium]
[1]; RP6, herbicide alone, foramsulfuron 29, trifloxysulfuron 27.8, imazaquin 27.5, bispyribac-sodium 70 g ha^−1
  Annual bluegrass control RP6: 28%
[1]; RP6, herbicide with PBO 2100 g ha^−1 applied 60 min prior
  Annual bluegrass control RP6: 20%
[1]; RP6, herbicide with malathion 1000 g ha^−1 applied 60 min prior
  Annual bluegrass control RP6: 32%
[1]; RP7, herbicide alone, foramsulfuron 29, trifloxysulfuron 27.8, imazaquin 27.5, bispyribac-sodium 70 g ha^−1
  Annual bluegrass control RP7: 7%
[1]; RP7, herbicide with PBO 2100 g ha^−1 applied 60 min prior
  Annual bluegrass control RP7: 14%
[1]; RP7, herbicide with malathion 1000 g ha^−1 applied 60 min prior
  Annual bluegrass control RP7: 47%
[1]; herbicide alone, foramsulfuron 29, trifloxysulfuron 27.8, imazaquin 27.5, bispyribac-sodium 70 g ha^−1
  Annual bluegrass control S: 90%
[1]; herbicide with PBO 2100 g ha^−1 applied 60 min prior
  Annual bluegrass control S: 86%
[1]; herbicide with malathion 1000 g ha^−1 applied 60 min prior
  Annual bluegrass control S: 92%

## CC(C)C1(C)N=C(c2ncccc2C(=O)O)NC1=O (stereo not drawn) [Imazapyr]
[2]
  Resistance factor W574L: 16
[3]
  Resistance factor A205V: 16
[4]
  IC50: 6060 nM

## O=C(Nc1nc(OC(F)F)cc(OC(F)F)n1)NS(=O)(=O)c1ccccc1C(=O)O [Primisulfuron]
[2]
  Resistance factor W574L: 5728
[3]
  Resistance factor A205V: 429
[4]
  IC50: 3.14 nM

## COc1nc(C)nc(NC(=O)NS(=O)(=O)c2ccccc2CCC(F)(F)F)n1 [Prosulfuron]
[2]
  Resistance factor W574L: 3524
[3]
  Resistance factor A205V: 88
[4]
  IC50: 2.88 nM

## COc1cc(OC)n2nc(NS(=O)(=O)c3c(C(F)(F)F)ccnc3OC)nc2n1 [Pyroxulam]
[2]
  Resistance factor W574L: 24,268
[3]
  Resistance factor A205V: 162
[4]; concentration for 50 % inhibition of WT enzyme, max inhibitor concentration 1.00 × 10^−04 M, read-out: WT sensitivity [IC50]
  IC50: 4.12 nM

## COC(=O)c1ccccc1S(=O)(=O)NC(=O)Nc1nc(C)cc(C)n1 [Sulfometuron, Sulfometuron-methyl]
[5]; RP1, 28 days after treatment, minimum of two tillers, foramsulfuron 29, sulfometuron 105 g ha^−1
  Annual bluegrass control RP1: 24%
[5]; RP1, plant height 28 days after treatment, foramsulfuron 29, sulfometuron 105 g ha^-1, non-treated 118 mm
  Annual bluegrass height RP1: 76 mm
[5]; RP2, 28 days after treatment, minimum of two tillers, foramsulfuron 29, sulfometuron 105 g ha^−1
  Annual bluegrass control RP2: 29%
[5]; RP2, plant height 28 days after treatment, foramsulfuron 29, sulfometuron 105 g ha^-1, non-treated 129 mm
  Annual bluegrass height RP2: 65 mm
[5]; RP3, 28 days after treatment, minimum of two tillers, foramsulfuron 29, sulfometuron 105 g ha^−1
  Annual bluegrass control RP3: 21%
[5]; RP3, plant height 28 days after treatment, foramsulfuron 29, sulfometuron 105 g ha^-1, non-treated 173 mm
  Annual bluegrass height RP3: 78 mm
[5]; RP4, 28 days after treatment, minimum of two tillers, foramsulfuron 29, sulfometuron 105 g ha^−1
  Annual bluegrass control RP4: 21%
[5]; RP4, plant height 28 days after treatment, foramsulfuron 29, sulfometuron 105 g ha^-1, non-treated 140 mm
  Annual bluegrass height RP4: 71 mm
[5]; RP5, 28 days after treatment, minimum of two tillers, foramsulfuron 29, sulfometuron 105 g ha^−1
  Annual bluegrass control RP5: 26%
[5]; RP5, plant height 28 days after treatment, foramsulfuron 29, sulfometuron 105 g ha^-1, non-treated 114 mm
  Annual bluegrass height RP5: 68 mm
[5]; RP6, 28 days after treatment, minimum of two tillers, foramsulfuron 29, sulfometuron 105 g ha^−1
  Annual bluegrass control RP6: 76%
[5]; RP6, plant height 28 days after treatment, foramsulfuron 29, sulfometuron 105 g ha^-1, non-treated 106 mm
  Annual bluegrass height RP6: 56 mm
[5]; RP7, 28 days after treatment, minimum of two tillers, foramsulfuron 29, sulfometuron 105 g ha^−1
  Annual bluegrass control RP7: 28%
[5]; RP7, plant height 28 days after treatment, foramsulfuron 29, sulfometuron 105 g ha^-1, non-treated 125 mm
  Annual bluegrass height RP7: 69 mm
[5]; RP8, 28 days after treatment, minimum of two tillers, foramsulfuron 29, sulfometuron 105 g ha^−1
  Annual bluegrass control RP8: 21%
[5]; RP8, plant height 28 days after treatment, foramsulfuron 29, sulfometuron 105 g ha^-1, non-treated 132 mm
  Annual bluegrass height RP8: 67 mm
[5]; susceptible (S), 28 days after treatment, minimum of two tillers, foramsulfuron 29, sulfometuron 105 g ha^−1
  Annual bluegrass control S: 99%
[5]; susceptible (S), plant height 28 days after treatment, foramsulfuron 29, sulfometuron 105 g ha^-1, non-treated 111 mm
  Annual bluegrass height S: 9 mm
